These results are taken from patent US8362034B2, “Quinoline compound, and composition containing centipede extract or compounds isolated therefrom for prevention and treatment of cardiovascular disease” (Korea Research Institute of Bioscience and Biotechnology, priority 2005, dated 2013).

One test has as its target T1, hACAT-1 (Homo sapiens, UniProt P35610).
T1 construct: made in house; host or cells: baculovirus; virus produced in sf9, protein expressed in Hi5 insect cells; microsome fraction used
T1 sequence (P35610 1-550): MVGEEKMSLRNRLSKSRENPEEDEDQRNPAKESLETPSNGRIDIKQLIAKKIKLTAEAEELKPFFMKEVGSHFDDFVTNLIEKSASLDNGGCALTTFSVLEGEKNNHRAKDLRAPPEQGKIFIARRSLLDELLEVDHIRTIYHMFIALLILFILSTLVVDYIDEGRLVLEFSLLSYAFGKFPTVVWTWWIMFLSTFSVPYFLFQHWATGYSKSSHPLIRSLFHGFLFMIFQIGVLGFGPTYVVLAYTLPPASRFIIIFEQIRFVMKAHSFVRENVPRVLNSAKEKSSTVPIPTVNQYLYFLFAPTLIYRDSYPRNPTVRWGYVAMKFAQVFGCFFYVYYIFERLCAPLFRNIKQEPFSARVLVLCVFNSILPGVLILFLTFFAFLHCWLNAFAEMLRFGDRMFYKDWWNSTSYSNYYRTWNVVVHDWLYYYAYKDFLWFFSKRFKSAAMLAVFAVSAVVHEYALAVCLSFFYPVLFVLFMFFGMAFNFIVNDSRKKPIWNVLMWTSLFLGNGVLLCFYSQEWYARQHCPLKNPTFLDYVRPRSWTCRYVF
Description: ACAT activity, hACAT-1 microsomes, [1-14C]oleoyl-CoA. The class given is biochemical. The following applies: 100 μg/ml; read-out: Inhibitory activity (%) hACAT-1. The text has this: (§1) To investigate the effect on human ACAT-1 and ACAT-2 activities, hACAT-1 and hACAT-2 proteins were obtained using baculovirus expression system.
(§2) hACAT-1 and hACAT-2 cDNAs, obtained by human liver cDNA library screening, were inserted into the baculovirus transfer vector, which was introduced into an insect cell line sf9 to produce virus. Then, recombinant virus of each hACAT-1 and hACAT-2 was separated by plaque purification, followed by amplification three times to raise titer of the viral stock. Hi5 insect cells having high protein expression efficiency were infected with the recombinant virus (1 multiplicity of infection), followed by shaking culture at 27° C. for a day. Centrifugation was performed at 500×g for 15 minutes to separate microsome fractions from Hi5 cells over-expressing hACAT-1 and hACAT-2. The resultant cells were lysed in a hypotonic buffer by quick freezing-quick thawing, followed by ultracentrifugation at 100,000×g for one hour. The obtained microsome fractions were suspended in the hypotonic buffer until the concentration of the protein reached 8 mg/ml, which was stored in a deep freezer until use.
(§3) To measure the ACAT activity, [1-^14C] oleoly-CoA (56.0 μCi/μmol; Amersham) was used as a substrate and a method of Brecher & Chan was used with a slight modification [P. Brecher and C. Chan, Biochem. Biophys. Acta, 617, 458, 1980].
(§4) Ten μl of the centipede extracts or the compound prepared in the above Example was mixed with 4.0 μl of the microsomal solution prepared in Experimental Example <2-1>, 20.0 μl of an activity analyzing buffer (0.5 M KH2PO4, 10 mM DTT, pH 7.4; Sigma), 15.0 μl of fatty acid-free bovine serum albumin (fatty acid-free BSA, stock concentration 40 mg/ml; Sigma), 2.0 μl of cholesterol (stock solution 20 mg/ml; Sigma) and 41.0 μl of distilled water, which was preincubated at 37° C. for 15 minutes. […] The radioactivity of the mixture was measured with 1450 Microbeta liquid scintillation counter (Wallacoy).
(§5) ACAT activity was calculated as pmol of cholesteryl oleate synthesized per 1 mg of protein in one minute (pmol/minute/mg of protein).

The next test addresses T2, hACAT-2 (Homo sapiens, UniProt O75908).
T2 construct: made in house; host or cells: baculovirus; virus produced in sf9, protein expressed in Hi5 insect cells; microsome fraction used
T2 sequence (O75908 1-522): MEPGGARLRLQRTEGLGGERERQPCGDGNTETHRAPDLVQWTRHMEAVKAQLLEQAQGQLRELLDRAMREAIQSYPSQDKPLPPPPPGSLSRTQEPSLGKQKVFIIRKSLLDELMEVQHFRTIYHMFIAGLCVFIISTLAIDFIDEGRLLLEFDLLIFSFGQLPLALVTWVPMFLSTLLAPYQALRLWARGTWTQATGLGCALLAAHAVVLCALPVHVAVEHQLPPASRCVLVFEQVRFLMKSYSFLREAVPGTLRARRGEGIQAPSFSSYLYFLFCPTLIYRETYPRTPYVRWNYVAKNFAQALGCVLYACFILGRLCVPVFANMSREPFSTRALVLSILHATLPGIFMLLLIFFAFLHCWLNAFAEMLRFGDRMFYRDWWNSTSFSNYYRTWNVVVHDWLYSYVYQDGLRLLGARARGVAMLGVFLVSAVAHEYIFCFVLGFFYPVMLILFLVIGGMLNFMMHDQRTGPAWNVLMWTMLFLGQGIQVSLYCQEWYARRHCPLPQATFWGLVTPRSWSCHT
Description: ACAT activity, hACAT-2 microsomes, [1-14C]oleoyl-CoA. The class given is biochemical. To be noted: 100 μg/ml; read-out: Inhibitory activity (%) hACAT-2.
Excerpt: as §1, §2, §3, §4, §5

The next test concerns LDL. Nature of the test: LDL-antioxidant activity by TBARS (Cu2+-mediated LDL-oxidation). The class given is biochemical, human. The protocol:
Ed., Methods in Enzymology. Vol. 234, Oxygen radicals in biological systems Part D. Academic press, San Diego, 1994]. Three hundred ml of human plasma was taken, followed by centrifugation at 100,000×g for 24 hours with an ultracentrifuge. VLDL/chylomicrom layer floating in the supernatant was eliminated. […] At that time, the compounds were dissolved in dimethylsulfoxide (DMSO) and diluted at different concentrations to be ready for the experiment. DMSO alone was used as a negative control. As a positive control, probucol, a known antioxidant, was added. To each solution was added 10 μl of 0.25 mM CuSO4, followed by reaction at 37° C. for 4 hours. The reaction was terminated by addition of 1 ml of 20% trichloroacetic acid (TCA) solution. 1 ml of 0.67% TBA solution dissolved in 0.05 N NaOH solution was added thereto, followed by stirring for 10 seconds. The solution was heated at 95° C. for 5 minutes to induce color development and then cooled down with ice water. The solution was centrifuged at 3000 rpm for 5 minutes to separate the supernatant and OD540 was measured with UV/VIS spectrophotometer to measure the level of malondialdehyde (MDA) generated by the color development. In the meantime, to calculate the standard curve of malondialdehyde, the stock solution of malonaldehyde bis (dimethylacetal) was diluted, resulting in PBS standard solution containing 0˜10 nmol malondialdehyde. […] The malondialdehyde generated from the compounds of the invention was quantified and inhibitory activity and IC50 were also calculated.

One may read the IC50 as the concentration needed to halve the response being measured. A high value points to a need for much substance. Take `Oc1cnc2c(O)cccc2c1` [Compound 1, 3,8-dihydroxyquinoline]: the values for the inhibition at 100 µg/mL at hACAT-1 and on hACAT-2 were 60% and 50%, respectively. In the test with LDL, this compound showed an IC50 of 2.6 µM.

As for `COc1c(O)nc2c(O)cccc2c1OC` [Compound 2, 3,4-dimethoxyquinoline-2,8-diol], the inhibition at 100 µg/mL at hACAT-1 stood at 79%; on hACAT-2, 58%. Moreover, in the test on LDL, the concentration for half-maximal inhibition (IC50) amounted to 63 µM.

On to `CC(C)(C)c1ccc(O)c(C(C)(C)C)c1` [Compound 3, 2,4-di-tert-butylphenol], for which the inhibition at 100 µg/mL on hACAT-1 is 63%; at hACAT-2, 51%. The compound further had a 50% inhibitory concentration (IC50) in the test with LDL of 8.2 µM.

In turn, `CC(C)(Sc1cc(C(C)(C)C)c(O)c(C(C)(C)C)c1)Sc1cc(C(C)(C)C)c(O)c(C(C)(C)C)c1` [Probucol, probucol, reference compound] returned an IC50 in the test with LDL of 3.1 µM.
